Measured values taken from DBAASP.
Converted amounts (≈) assume the structure as drawn.

How the values were obtained:
Experiment in all cases: ≥ marks a high value that may be exact or a test limit, other limits are often not marked, values filed in µg/mL are converted to µM
[1] = system: Acinetobacter baumannii CCARM 12005
[2] = system: Acinetobacter baumannii CCARM 12035
[3] = system: Acinetobacter baumannii CCARM 12036
[4] = system: Acinetobacter baumannii CCARM 12037
[5] = system: Bacillus subtilis KCTC 3068
[6] = system: Enterococcus faecalis KCTC 2011
[7] = system: Escherichia coli CCARM 1229
[8] = system: Escherichia coli CCARM 1238
[9] = system: Escherichia coli KCTC 1682
[10] = system: Pseudomonas aeruginosa CCARM 2002
[11] = system: Pseudomonas aeruginosa CCARM 2095
[12] = system: Pseudomonas aeruginosa CCARM 2163
[13] = system: Pseudomonas aeruginosa KCTC 1637
[14] = system: Salmonella typhimurium CCARM 8003
[15] = system: Salmonella typhimurium CCARM 8007
[16] = system: Salmonella typhimurium CCARM 8009
[17] = system: Salmonella typhimurium KCTC 1926
[18] = system: Staphylococcus aureus CCARM 3089
[19] = system: Staphylococcus aureus CCARM 3108
[20] = system: Staphylococcus aureus CCARM 3126
[21] = system: Staphylococcus aureus KCTC 1621
[22] = system: Acinetobacter baumannii ATCC 17978
[23] = system: Bacillus subtilis ATCC 13933
[24] = system: Candida albicans ATCC 90028
[25] = system: Escherichia coli ATCC 700928
[26] = system: Escherichia coli NCTC 12923
[27] = system: Klebsiella pneumoniae NCTC 13368
[28] = system: Pseudomonas aeruginosa PAO1
[29] = system: Staphylococcus aureus ATCC 9144
[30] = system: Staphylococcus aureus USA 300
[31] = system: Aspergillus flavus KCTC 6905
[32] = system: Aspergillus fumigatus KCTC 6145
[33] = system: Bacillus subtilis KCTC 1998
[34] = system: Candida albicans KCTC 7270
[35] = system: Candida krusei CCARM 14017
[36] = system: Candida parapsilosis CCARM 14016
[37] = system: Candida tropicalis KCTC 7221
[38] = system: Escherichia coli ATCC 25922
[39] = system: Fusarium oxysporum KCTC 16909
[40] = system: Fusarium solani KCTC 6326
[41] = system: Fusarium verticillioides KCTC 6149
[42] = system: Pseudomonas aeruginosa ATCC 15692
Pseudomonas aeruginosa = system: Pseudomonas aeruginosa
[43] = system: Staphylococcus aureus ATCC 25923
Staphylococcus aureus = system: Staphylococcus aureus
[44] = system: Trichophyton rubrum KCTC 6345
[45] = system: Trichosporon beigelii KCTC 7707
[46] = system: Bacillus subtilis CMCC 63501
[47] = system: Micrococcus luteus CMCC 28001
[48] = system: Ralstonia solanacearum ATCC 33192
[49] = system: Salmonella enterica subsp. enterica serovar Typhi CMCC 50071
[50] = system: Shigella dysenteriae CMCC 51252
[51] = system: Streptococcus pneumoniae ATCC 49619

What does the source list for `CC[C@H](C)[C@H](NC(=O)[C@H](CCCCN)NC(=O)[C@H](Cc1c[nH]c2ccccc12)NC(=O)[C@@H](N)CCCN=C(N)N)C(=O)N[C@@H](Cc1ccccc1)C(=O)N[C@@H](CCCCN)C(=O)N[C@@H](CCCCN)C(=O)N[C@H](C(=O)N1CCC[C@H]1C(=O)N[C@@H](CCCCN)C(=O)N[C@@H](Cc1ccccc1)C(=O)N[C@@H](CC(C)C)C(=O)N[C@@H](Cc1cnc[nH]1)C(=O)N[C@@H](CO)C(=O)N[C@@H](C)C(=O)N[C@@H](CCCCN)C(=O)N[C@@H](CCCCN)C(=O)N[C@@H](Cc1ccccc1)C(N)=O)[C@@H](C)CC` [RWKIFKKIPKFLHSAKKF]?
MIC [1]: 2 µM (≈ 4.6 µg/mL); MIC [2]: 2 µM (≈ 4.6 µg/mL); MIC [3]: 2 µM (≈ 4.6 µg/mL); MIC [4]: 2 µM (≈ 4.6 µg/mL); MIC [5]: 4 µM (≈ 9.21 µg/mL); MIC [6]: 16 µM (≈ 36.8 µg/mL); MIC [7]: 4 µM (≈ 9.21 µg/mL); MIC [8]: 2 µM (≈ 4.6 µg/mL); MIC [9]: 2 µM (≈ 4.6 µg/mL); MIC [10]: 2 µM (≈ 4.6 µg/mL); MIC [11]: 2 µM (≈ 4.6 µg/mL); MIC [12]: 2 µM (≈ 4.6 µg/mL); MIC [13]: 4 µM (≈ 9.21 µg/mL); MIC [14]: 4 µM (≈ 9.21 µg/mL); MIC [15]: 2 µM (≈ 4.6 µg/mL); MIC [16]: 2 µM (≈ 4.6 µg/mL); MIC [17]: 2 µM (≈ 4.6 µg/mL); MIC [18]: 8 µM (≈ 18.4 µg/mL); MIC [19]: 4 µM (≈ 9.21 µg/mL); MIC [20]: 8 µM (≈ 18.4 µg/mL); MIC [21]: 4 µM (≈ 9.21 µg/mL)

How did the MIC [22] turn out when `CC[C@H](C)[C@H](NC(=O)CNC(=O)[C@@H](N)CCCCN)C(=O)N[C@@H](CCCN=C(N)N)C(=O)NCC(=O)N[C@@H](Cc1ccc(O)cc1)C(=O)N[C@@H](CCCCN)C(=O)NCC(=O)NCC(=O)N[C@@H](Cc1ccc(O)cc1)C(=O)N[C@@H](CCCCN)C(=O)NCC(=O)N[C@@H](C)C(=O)N[C@@H](Cc1ccccc1)C(=O)N[C@@H](CCCCN)C(=O)N[C@@H](CCC(N)=O)C(=O)N[C@H](C(=O)N[C@@H](CCCCN)C(=O)N[C@@H](Cc1ccc(O)cc1)C(=O)O)[C@@H](C)O` [KGIRGYKGGYKGAFKQTKY] was run?
Its MIC is ≥ 59.5 µM.

And the MIC [23]?
The MIC was ≥ 55.8 µM.

What about the MIC [24] of the same compound?
Its MIC is 2.2 µM (≈ 4.73 µg/mL).

And the MIC [25]?
The MIC was ≥ 55.8 µM.

And the MIC [26]?
Its MIC is ≥ 59.5 µM.

What about the MIC [27] of the same compound?
Its MIC is ≥ 59.5 µM.

And the MIC [28]?
Its MIC is > 59.5 µM.

What about the MIC [29] of the same compound?
The MIC was ≥ 59.5 µM.

And the MIC [30]?
The MIC was ≥ 59.5 µM.

For `CC[C@H](C)[C@H](NC(=O)[C@H](CC(C)C)NC(=O)[C@H](CCCCN)NC(=O)[C@H](CCCCN)NC(=O)[C@H](CC(C)C)NC(=O)[C@H](CCCN=C(N)N)NC(=O)[C@H](CCCCN)NC(=O)[C@@H](N)Cc1ccccc1)C(=O)N[C@@H](CO)C(=O)N[C@@H](Cc1c[nH]c2ccccc12)C(=O)N[C@H](C(=O)N[C@@H](CCCCN)C(=O)N[C@@H](CCCN=C(N)N)C(=O)N[C@@H](CCCCN)C(=O)N[C@@H](CCCN=C(N)N)C(=O)N[C@@H](CCC(N)=O)C(=O)N[C@@H](CCC(N)=O)C(N)=O)[C@@H](C)CC` [FKRLKKLISWIKRKRQQ], which MIC [31] is on record?
Its MIC is 2.83 µM (≈ 6.38 µg/mL).

And the MIC [32]?
The MIC was 2.83 µM (≈ 6.38 µg/mL).

What about the MIC [33] of the same compound?
Its MIC is 2 µM (≈ 4.51 µg/mL).

And the MIC [34]?
The MIC was 16 µM (≈ 36.1 µg/mL).

And the MIC [35]?
Its MIC is 8 µM (≈ 18 µg/mL).

And the MIC [36]?
The MIC was 16 µM (≈ 36.1 µg/mL).

And the MIC [37]?
The MIC was 4 µM (≈ 9.02 µg/mL).

What about the MIC [38] of the same compound?
Its MIC is 1 µM (≈ 2.26 µg/mL).

And the MIC [39]?
The MIC was 1.41 µM (≈ 3.19 µg/mL).

And the MIC [40]?
Its MIC is 1 µM (≈ 2.26 µg/mL).

And the MIC [41]?
The MIC was 1.41 µM (≈ 3.19 µg/mL).

What about the MIC [42] of the same compound?
Its MIC is 2 µM (≈ 4.51 µg/mL).

What about the MIC (Pseudomonas aeruginosa) of the same compound?
The MIC was 1.41 µM (≈ 3.19 µg/mL).

And the MIC [43]?
The MIC was 2 µM (≈ 4.51 µg/mL).

And the MIC (Staphylococcus aureus)?
Its MIC is 1.41 µM (≈ 3.19 µg/mL).

What about the MIC [44] of the same compound?
Its MIC is 1.41 µM (≈ 3.19 µg/mL).

And the MIC [45]?
Its MIC is 1 µM (≈ 2.26 µg/mL).

For `CC[C@H](C)[C@H](NC(=O)[C@H](Cc1c[nH]c2ccccc12)NC(=O)[C@@H](N)CCSC)C(=O)N[C@H](C(=O)N[C@@H](CC(N)=O)C(=O)NCC(=O)NCC(=O)N[C@H](C(=O)N[C@@H](C)C(=O)N[C@@H](CC(N)=O)C(=O)N[C@@H](Cc1c[nH]c2ccccc12)C(=O)N[C@@H](Cc1ccc(O)cc1)C(=O)N[C@@H](Cc1ccccc1)C(=O)N[C@H](C(=O)N[C@@H](CC(C)C)C(=O)N[C@@H](C)C(=O)N[C@@H](CCCN=C(N)N)C(=O)O)C(C)C)C(C)C)[C@@H](C)O` [MWITNGGVANWYFVLAR], which MIC [46] is on record?
The MIC was 6.26 µM (≈ 12.5 µg/mL).

And the MIC [38]?
The MIC was 6.26 µM (≈ 12.5 µg/mL).

What about the MIC [47] of the same compound?
The MIC was 12.5 µM (≈ 25 µg/mL).

What about the MIC [48] of the same compound?
Its MIC is 6.26 µM (≈ 12.5 µg/mL).

And the MIC [49]?
The MIC was 3.13 µM (≈ 6.25 µg/mL).

And the MIC [50]?
Its MIC is 1.57 µM (≈ 3.14 µg/mL).

And the MIC [43]?
Its MIC is 12.5 µM (≈ 25 µg/mL).

What about the MIC [51] of the same compound?
Its MIC is 6.26 µM (≈ 12.5 µg/mL).
